Data set [1] relates to shock induced by histamine. As to the kind of experiment: antibronchospastic activity, shock induced by histamine. In kind it is in vivo. As to conditions: 0.25 mM/kg/i.p.; guinea pig; value after treatment.
The test system of data set [2] is fluid of the respiratory tract. As to the kind of experiment: mucolytic-expectorant activity, fluorescein elimination in the fluid of the respiratory tract. As to conditions: 1 mM/kg/os; in comparison with the controls. In kind it is in vivo.
A short description of data set [3]: acute toxicity. As to conditions: in vivo, ip; female mouse.
For data set [4], the system named is suspension of 4% mucine. Put plainly: in vitro mucolytic activity, viscosity of a 4% mucine suspension. In kind it is biochemical. As to conditions: 0,00625 M, after hydrolysis with rat serum. An excerpt:
More specifically in the test of "in vitro" mucolytic activity with a suspension of 4% mucine (II Farmaco, ed.prat.33-379, 1978), and the molar concentration being the same (0,00625 M), after hydrolysis with rat serum, the 2-f(theophyllin-7-yl)-methyloxysuccinoylthiSïpropionamido acetic acid caused a reduction of viscosity by 11,2% to take place, which is like that of tiopronin (11,5%) and higher than that of N-acetylcysteine (7,6%).

For data set [5], the system named is spasm induced by histamine. Put plainly: Konzett-Rossler test, spasm induced by histamine. It is filed as in vivo. As to conditions: spasm induced by histamine (2 mcg/kg/e.v.); guinea pig. The procedure: (§1) (0.0276-0.1406), like that of theophylline of 0.0395 mM/kg/e.v. […] (0.0133-0,893) which is definitely and significatively lower than that of theophylline (0.1026 (0.0508-0.2072). The bronchodilating activity of the compounds of formula I is consequently definitely higher than that of theophylline.

For data set [6], the system named is spasm induced by acetylcholine. As to the kind of experiment: Konzett-Rossler test, spasm induced by acetylcholine. In kind it is in vivo. As to conditions: spasm induced by acetylcholine (10 mcg/kg/e.v.); guinea pig. The procedure:
as §1

Data set [7] relates to cough induced by citric acid. Put plainly: anticough activity, cough induced by citric acid. As to conditions: guinea pig.

Results on five molecules are retold here after patent EP0189101A2, “Compounds having mucolytic and bronchodilating activity, a process for their preparation and pharmaceutical composition containing them as active principle” (PROTER S.p.A., priority 1985, dated 1986).

On to `CC(SC(=O)CCC(=O)OCn1cnc2c1c(=O)n(C)c(=O)n2C)C(=O)NCC(=O)O` (centres unmarked) [2-[(theophyllin-7-yl)methyloxysuccinoylthio]-propionamido acetic acid], for which the shock resistance in data set [1] was 291.7 ± 43.2 s. Moreover, in data set [2], the “increase of the escretion of the colouring compound” value turned out to be 86%. The same molecule came in with a 50% lethal dose (LD50) in data set [3] of 481 mg/kg. The reduction of viscosity in data set [4] is reported as 11,2%. Moreover, the ED in data set [5] was 0.0345 mM/kg/e.v. The ED50 in data set [6] was 0.0623 mM/kg/e.v. The “reduction of the cough” value in data set [7] (100 mg/kg/i.p., in comparison with the controls) was 79%.

For `CC(=O)N[C@@H](CS)C(=O)O` [N-acetylcysteine], in data set [4], the reduction of viscosity was 7,6%.

Take `COc1ccc2c3c1O[C@H]1[C@@H](O)C=C[C@H]4[C@@H](C2)N(C)CC[C@@]341` [codeine phosphate]: the “reduction of the cough” value in data set [7] (5 mg/kg/i.p.) was 87%.

For the molecule `Cn1c(=O)c2[nH]cnc2n(C)c1=O` [theophylline], the shock resistance in data set [1] came out at 316.8 ± 27.3 s. The ED in data set [5] was 0.1026 (0.0508-0.2072) mM/kg/e.v. Moreover, the ED50 in data set [6] is 0.0395 mM/kg/e.v.

For `CC(S)C(=O)NCC(=O)O` (centres unmarked) [tiopronin], the “increase of the escretion of the colouring compound” value in data set [2] amounted to 94%. Moreover, the reduction of viscosity in data set [4] is on record as 11,5%.

One may read the LD50 as the dose at which mortality reaches 50%. A lower LD50 goes with greater toxicity.
